In US6391261B1, “Device for detecting analytes related to sample pH” (Lifepoint, Inc., priority 2000, dated 2002):

System: cocaine antibody
Test: Cross-reactivity of the antibody used in the lateral flow competitive immunoassay for cocaine
Type: binding
Conditions: dye labeled cocaine antibody of the saliva test cassette
From the text: Each rapid oral fluid test cassette 70 included in this test kit consists of a lateral flow assay strip, a color intensity chart 78, a pH test section 82, and a pH chart 80. The lateral flow assay strip consists of color dye labeled cocaine antibody and a nitrocellulose membrane coated with cocaine-Bovine Serum […] (“BSA”) conjugate. When a saliva sample is applied to the sample section of the cassette, the saliva sample will migrate by capillary movement to the dye-antibody zone and the cocaine-BSA membrane zone. If the sample tested is negative, the dye-antibody will bind with the membrane cocaine-BSA conjugate to form a red band on the membrane.
If the sample tested contains cocaine, cocaine in the sample will bind with the dye-antibody, and thus the binding between the dye-antibody and the membrane cocaine-BSA is prevented. The unbound dye-antibody will migrate away from the membrane to an absorbent pad. As a result, the intensity of the color band appearing on the membrane is inversely proportional to the concentration of cocaine in the saliva sample. A semi-quantitative result of cocaine concentration in the saliva sample is achieved by comparing the color band with a color intensity chart.

c1ccc(C2(N3CCCCC3)CCCCC2)cc1 [phencyclidine]
cross-reactivity of the assay antibody as compared with cocaine: No significant cross-reactivity

CN[C@@H](C)Cc1ccccc1 [methamphetamine]
cross-reactivity of the assay antibody as compared with cocaine: No significant cross-reactivity

tetrahydrocannabinols
cross-reactivity of the assay antibody as compared with cocaine: No significant cross-reactivity

COc1ccc2c3c1O[C@H]1[C@@H](O)C=C[C@H]4[C@@H](C2)N(C)CC[C@@]341 [codeine]
cross-reactivity of the assay antibody as compared with cocaine: No significant cross-reactivity

CCO [ethanol]
cross-reactivity of the assay antibody as compared with cocaine: No significant cross-reactivity

CN1CC[C@]23c4c5ccc(O)c4O[C@H]2[C@@H](O)C=C[C@H]3[C@H]1C5 [morphine]
cross-reactivity of the assay antibody as compared with cocaine: No significant cross-reactivity

CN1[C@H]2CC[C@@H]1[C@@H](C(=O)O)[C@@H](OC(=O)c1ccccc1)C2 [benzoylecgonine]
cross-reactivity of the assay antibody as compared with cocaine: less than 5%
